The target of experiment [1] is T1, Neuropeptide Y receptor type 1 (Homo sapiens, UniProt P25929).
T1 sequence (P25929 whole entry): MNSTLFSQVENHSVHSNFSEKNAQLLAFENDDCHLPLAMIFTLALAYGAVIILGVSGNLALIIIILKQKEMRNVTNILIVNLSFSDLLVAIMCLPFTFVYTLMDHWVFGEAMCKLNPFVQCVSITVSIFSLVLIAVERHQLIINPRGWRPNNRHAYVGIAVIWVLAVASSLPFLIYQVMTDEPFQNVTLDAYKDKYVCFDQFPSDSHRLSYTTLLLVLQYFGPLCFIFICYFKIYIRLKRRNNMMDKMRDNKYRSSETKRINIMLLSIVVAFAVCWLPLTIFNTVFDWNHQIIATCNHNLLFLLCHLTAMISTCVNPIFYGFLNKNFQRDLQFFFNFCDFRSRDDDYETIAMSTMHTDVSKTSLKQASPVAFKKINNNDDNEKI
Description: NPY Y1-antagonistic activity in HEL cells by measuring the inhibition of porcine NPY (10 nM) stimulated increase in the intracellular [Ca2+] concentration in a FURA-assay. Format: functional, cell-based.

Experiment [2] has as its target T2, Neuropeptide Y receptor type 2 (Homo sapiens, UniProt P49146).
T2 sequence (P49146 whole entry): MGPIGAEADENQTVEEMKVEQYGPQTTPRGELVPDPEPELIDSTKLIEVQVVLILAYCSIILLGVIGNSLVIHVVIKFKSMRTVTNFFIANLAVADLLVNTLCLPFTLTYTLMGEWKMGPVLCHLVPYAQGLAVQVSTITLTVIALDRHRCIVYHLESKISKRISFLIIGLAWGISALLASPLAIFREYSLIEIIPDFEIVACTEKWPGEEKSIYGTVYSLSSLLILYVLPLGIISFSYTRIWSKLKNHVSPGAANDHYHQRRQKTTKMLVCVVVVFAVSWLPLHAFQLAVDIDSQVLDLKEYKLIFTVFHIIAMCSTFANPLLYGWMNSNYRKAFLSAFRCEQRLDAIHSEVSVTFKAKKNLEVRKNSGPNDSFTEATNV
Description: Inhibition of binding of [3H]propionyl-NPY (1 nM) to Neuropeptide Y receptor type 2 in SMS-KAN cell membranes.

For experiment [3], the target named is T3, Neuropeptide Y receptor type 5 (Homo sapiens, UniProt Q15761).
T3 sequence (Q15761 whole entry): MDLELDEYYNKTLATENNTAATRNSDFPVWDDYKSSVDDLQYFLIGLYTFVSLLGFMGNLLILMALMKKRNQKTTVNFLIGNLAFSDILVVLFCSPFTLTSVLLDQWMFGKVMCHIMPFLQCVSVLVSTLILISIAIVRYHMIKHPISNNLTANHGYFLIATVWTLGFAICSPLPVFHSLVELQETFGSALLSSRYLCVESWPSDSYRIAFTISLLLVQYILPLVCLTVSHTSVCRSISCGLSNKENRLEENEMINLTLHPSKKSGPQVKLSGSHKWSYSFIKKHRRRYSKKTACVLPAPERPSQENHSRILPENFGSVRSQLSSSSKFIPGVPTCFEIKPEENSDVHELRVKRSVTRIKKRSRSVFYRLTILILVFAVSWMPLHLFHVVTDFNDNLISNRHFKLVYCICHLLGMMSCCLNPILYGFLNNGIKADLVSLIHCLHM
Description: Inhibition of binding of [3H]propionyl-NPY (1 nM) to Neuropeptide Y receptor type 5 in HEC-1-B cells. Format: cell-based.

For experiment [4], the target named is T1, Neuropeptide Y receptor type 1. Description: Inhibition of binding of [3H]propionyl-NPY (1 nM) to Neuropeptide Y receptor type 1 in SK-N-MC cells. The format is cell-based.
For experiment [5], the target named is Neuropeptide Y receptor type 1 (Homo sapiens) (UniProt P25929). Nature of the experiment: NPY Y1-antagonistic activity in HEL cells by measuring the inhibition of porcine NPY (10 nM) stimulated increase in the intracellular [Ca2+] concentration in a FURA-assay;Inactive, less than 20% inhibition at […].

As to `N=C(N)NCCCC(NC(=O)C(c1ccccc1)c1ccccc1)C(=O)NCc1ccccn1` (configuration not stated), the IC50 in experiment [1] (read-out: IC50) was 3.75 µM.

On to `N=C(N)NCCCC(NC(=O)C(c1ccccc1)c1ccccc1)C(=O)N[C@@H](C(N)=O)c1ccc(O)cc1` (some centres not stated), for which the IC50 in experiment [1] (read-out: IC50) came to 8.1 µM.

Consider `N=C(N)NCCCC(NC(=O)C(c1ccccc1)c1ccccc1)C(=O)N[C@@H](C(N)=O)c1ccccc1` (some centres not stated), for which the IC50 was 4.6 µM in experiment [1] (read-out: IC50), above 400 µM in experiment [2], 163 µM in experiment [3] and 2.4 µM in experiment [4].

In the case of `N=C(N)NCCCC(NC(=O)C(c1ccccc1)c1ccccc1)C(=O)NCCc1ccccn1` (configuration not stated), the IC50 in experiment [1] (read-out: IC50) stood at 11.5 µM.

Regarding `N=C(N)NCCCC(NC(=O)C(c1ccccc1)c1ccccc1)C(=O)N[C@@H]1CCc2ccccc21` (some centres not stated), the IC50 in experiment [1] (read-out: IC50) came to 21 µM.

Consider `N=C(N)NCCCC(NC(=O)C(c1ccccc1)c1ccccc1)C(=O)N[C@@H](CO)c1ccccc1` (some centres not stated), for which the IC50 in experiment [1] (read-out: IC50) worked out at 22.3 µM.

In the case of `N=C(N)NCCCC(NC(=O)C(c1ccccc1)c1ccccc1)C(=O)NCc1ccc(O)cc1` (configuration not stated), the IC50 in experiment [2] is above 100 µM; in experiment [3], 80 µM.

As to `N=C(N)NCCCC(NC(=O)C(c1ccccc1)c1ccccc1)C(=O)NC1CCc2cc(O)ccc21` (racemic), in experiment [1] (read-out: IC50), the IC50 turned out to be 1 µM.

`N=C(N)NCCCC(NC(=O)Cc1ccc(-c2ccccc2)cc1)C(=O)N[C@H]1CCc2ccccc21` (some centres not stated): in experiment [1] (hel), the IC50 entry was “Not Active”.

With `C[C@@H](NC(=O)C(CCCNC(=N)N)NC(=O)C(c1ccccc1)c1ccccc1)c1ccccc1` (some centres not stated), the IC50 in experiment [1] (read-out: IC50) was determined as 0.2 µM; in experiment [2], 177 µM; in experiment [3], 48 µM; in experiment [4] it was 0.15 µM.

Take `N=C(N)NCCCC(NC(=O)C(c1ccccc1)(c1ccccc1)c1ccccc1)C(=O)NCc1ccccc1` (configuration not stated): the IC50 entry in experiment [5] was “Not Active”.

Regarding `N=C(NCCCc1ccccc1)NCCCC(NC(=O)Cc1ccc(-c2ccccc2)cc1)C(=O)N1CCCc2cc(O)ccc2C1` (configuration not stated), the half-maximal inhibitory concentration (IC50) in experiment [1] (read-out: IC50) amounted to 11.9 µM; in experiment [2], 78 µM; in experiment [3], 0.77 µM; in experiment [4], 22 µM.

For `N=C(NCCCc1ccccc1)NCCCC(NC(=O)Cc1ccc(-c2ccccc2)cc1)C(=O)N1CCCc2ccccc2C1` (configuration not stated), the IC50 result in experiment [1] (hel) is given as “Not Active”.

Turning to `N=C(N)NCCCC(NC(=O)Cc1ccc(-c2ccccc2)cc1)C(=O)N1CCCc2ccccc2C1` (configuration not stated), in experiment [1] (read-out: IC50), the IC50 is 76 µM.

With `C[C@H](NC(=O)C(CCCNC(=N)N)NC(=O)C(c1ccccc1)c1ccccc1)c1ccccc1` (some centres not stated), the IC50 in experiment [1] (read-out: IC50) amounted to 2.5 µM.

Consider `N=C(N)NCCCC(NC(=O)C(c1ccccc1)c1ccc(Cl)cc1)C(=O)N[C@H]1CCc2ccccc21` (some centres not stated), for which the IC50 in experiment [1] (read-out: IC50) was 3 µM; in experiment [2] it was 59 µM; in experiment [3] it was 11.9 µM; in experiment [4] it was 5.3 µM.

Take `N=C(N)NCCCC(NC(=O)C(c1ccc(Cl)cc1)c1ccc(Cl)cc1)C(=O)N1CCCc2ccccc2C1` (configuration not stated): the IC50 in experiment [1] (read-out: IC50) turned out to be 1.1 µM.

For `N=C(N)NCCCC(NC(=O)C(c1ccccc1)c1ccccc1)C(=O)N[C@H](CO)c1ccccc1` (some centres not stated), the IC50 in experiment [1] (read-out: IC50) turned out to be 0.9 µM; in experiment [2] it was 540 µM; in experiment [3], 68 µM; in experiment [4], 0.184 µM.

For `N=C(N)NCCCC(NC(=O)C(c1ccccc1)c1ccccc1)C(=O)N[C@H](C(N)=O)c1ccccc1` (some centres not stated), in experiment [1] (read-out: IC50), the IC50 amounted to 7.5 µM.

Take `N=C(N)NCCCC(NC(=O)C(c1ccccc1)c1ccc(Cl)cc1)C(=O)NCc1ccccc1` (configuration not stated): the IC50 in experiment [1] (read-out: IC50) was 0.081 µM; in experiment [2] it was 97 µM; in experiment [3], 2.6 µM; in experiment [4], 0.17 µM.

On to `CC(NC(=O)C(CCCN=C(N)N)NC(=O)C(c1ccccc1)c1ccccc1)c1ccc(O)cc1` (racemic), for which the IC50 in experiment [1] (read-out: IC50) was 0.06 µM; in experiment [2], 575 µM; in experiment [3], 75 µM; in experiment [4], 0.019 µM.

Take `N=C(N)NCCCC(NC(=O)C(c1ccc(Cl)cc1)c1ccc(Cl)cc1)C(=O)N[C@H]1CCc2ccccc21` (some centres not stated): the IC50 in experiment [1] (read-out: IC50) was above 10 µM.

In the case of `N=C(N)NCCCC(NC(=O)C(c1ccccc1)c1ccccc1)C(=O)N1CCCc2ccccc2C1` (configuration not stated), the IC50 in experiment [1] (read-out: IC50) came to 2.2 µM.

Regarding `N=C(N)NCCCC(NC(=O)C(c1ccccc1)c1ccccc1)C(=O)N[C@@H]1C[C@H](CO)c2ccccc21` (some centres not stated), the IC50 entry in experiment [5] is recorded as “Not Active”.

As to `N=C(N)NCCCC(NC(=O)Cc1ccc(-c2ccccc2)cc1)C(=O)NCc1ccccc1` (configuration not stated), the IC50 in experiment [1] (read-out: IC50) came to 21.8 µM.

For the compound `N=C(N)NCCCC(NC(=O)C(c1ccccc1)c1ccccc1)C(=O)NCC1CCCCN1` (racemic), the 50% inhibitory concentration (IC50) result in experiment [5] is listed as “Not Active”.

For the compound `N=C(N)NCCCC(NC(=O)C(c1ccccc1)c1ccccc1)C(=O)NCc1ccccc1` (configuration not stated), the IC50 in experiment [1] (read-out: IC50) is 0.11 µM.

As for `N=C(N)NCCCC(NC(=O)C(c1ccccc1)c1ccc(Cl)cc1)C(=O)N1CCCc2ccccc2C1` (configuration not stated), in experiment [1] (read-out: IC50), the IC50 is 1.1 µM.

Regarding `N=C(N)NCCCC(NC(=O)C(c1ccc(Cl)cc1)c1ccc(Cl)cc1)C(=O)NCc1ccccc1` (configuration not stated), the half-inhibitory concentration (IC50) in experiment [1] (read-out: IC50) was 0.1 µM.

As for `N=C(N)NCCCC(NC(=O)C(c1ccccc1)c1ccccc1)C(=O)N[C@H]1CCc2ccccc21` (some centres not stated), the IC50 in experiment [1] (read-out: IC50) came to 1.4 µM.

Take `N=C(N)NCCCC(NC(=O)C(c1ccccc1)(c1ccccc1)c1ccccc1)C(=O)N1CCCc2ccccc2C1` (configuration not stated): the IC50 in experiment [1] (read-out: IC50) is 51 µM.

`N=C(N)NCCCC(NC(=O)C(c1ccccc1)c1ccccc1)C(=O)N1CCCc2cc(O)ccc2C1` (configuration not stated): the IC50 in experiment [1] (read-out: IC50) is 0.28 µM; in experiment [2], 247 µM; in experiment [3], 25 µM; in experiment [4], 0.67 µM.

One may read the IC50 as the concentration needed to halve the response being measured.

The record behind these values is ChEMBL document CHEMBL1133238, “Structure-activity relationships of neuropeptide Y Y1 receptor antagonists related to BIBP 3226” (Bioorg Med Chem Lett, 2000).
